Test results from patent US11820792B2, “Cancer treatment” (Imperial College Innovations Limited, priority 2017, dated 2023).

What was measured:
UW228 cells = test: TNFα and cisplatin combination, sulphorodamine B viability; type: cell-based, human; details: stably transduced UW228, 1 μM and 5 μM cisplatin
Description: Cell viability was measured at different time points using sulphorodamine B assay. Stably transduced UW228 were treated with 1 μM and 5 μM cisplatin chemotherapy 48 hrs after seeding the cells. Data are represented as mean±SEM.***P≤0.001.

DIPG = details: 2 children, both died after treatment; cited from earlier work
[1] = system: recurrent human malignant glioma; details: cited from earlier work
[2] = systemic administration, clinical trials; cited from earlier work

Question: For N.N.[Cl][Pt][Cl] [cisplatin], which “effect of combination on tmTNFα cytokine gene therapy (cell viability)” value (UW228 cells) is on record?
Answer: increases

Question: Which tumour response (DIPG) does the source give for CC[C@@]1(O)C(=O)OCc2c1cc1n(c2=O)Cc2cc3c(CN(C)C)c(O)ccc3nc2-1 [topotecan] here?
Answer: reduction in tumour size

Question: What does the source list for “IL-4: Interleukin-4 protein injected intratumorally by convection enhanced delivery”?
Answer: neurotoxicity to normal brain ([1]; histology, any patient): No histological evidence of neurotoxicity; patients showing glioma necrosis ([1]; intratumoral, CED): Six of nine; disease free time after the procedure ([1]; one patient): > 18 months; systemic toxicity ([1]; treated patients): no drug-related systemic toxicity

Question: With “rhIL-15: Recombinant human IL-15 cytokine given systemically in clinical trials” as the molecule, how does the plasma half-life [2] read?
Answer: < 1 h
